Measurements taken from patent US20230091225A1, “Bifunctional chimeric heterocyclic compounds for targeted degradation of androgen receptors and use thereof” (HINOVA PHARMACEUTICALS INC., priority 2019, published 2023).
Read-outs that look alike come from different tables or passages of the source.

Molecular target: T1, androgen receptor (AR) (Homo sapiens, UniProt P10275)
T1 sequence (P10275 1-920): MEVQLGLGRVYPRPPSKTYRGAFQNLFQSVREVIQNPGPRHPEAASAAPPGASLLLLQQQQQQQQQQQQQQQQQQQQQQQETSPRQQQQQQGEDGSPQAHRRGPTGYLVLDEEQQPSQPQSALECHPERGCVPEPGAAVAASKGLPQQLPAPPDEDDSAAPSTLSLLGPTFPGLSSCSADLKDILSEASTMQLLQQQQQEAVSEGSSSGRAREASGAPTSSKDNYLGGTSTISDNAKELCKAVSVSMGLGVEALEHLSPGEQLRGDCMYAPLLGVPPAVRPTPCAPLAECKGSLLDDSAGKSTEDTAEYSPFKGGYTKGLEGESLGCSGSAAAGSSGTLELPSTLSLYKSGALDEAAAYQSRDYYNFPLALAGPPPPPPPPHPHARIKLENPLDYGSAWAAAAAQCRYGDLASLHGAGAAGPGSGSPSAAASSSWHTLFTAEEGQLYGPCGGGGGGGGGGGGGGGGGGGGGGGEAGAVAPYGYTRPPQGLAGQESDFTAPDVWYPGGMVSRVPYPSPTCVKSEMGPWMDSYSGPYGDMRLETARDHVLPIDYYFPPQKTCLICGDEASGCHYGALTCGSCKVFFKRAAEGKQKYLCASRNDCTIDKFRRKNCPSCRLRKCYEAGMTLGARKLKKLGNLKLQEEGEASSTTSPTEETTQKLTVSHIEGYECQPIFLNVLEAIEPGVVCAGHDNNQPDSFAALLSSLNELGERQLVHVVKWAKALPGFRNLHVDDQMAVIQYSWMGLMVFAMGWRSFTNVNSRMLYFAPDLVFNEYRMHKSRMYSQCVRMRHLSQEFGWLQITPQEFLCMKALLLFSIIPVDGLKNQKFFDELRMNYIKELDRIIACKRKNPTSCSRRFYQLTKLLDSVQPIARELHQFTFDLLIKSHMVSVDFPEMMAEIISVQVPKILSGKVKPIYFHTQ
Assay: Degradation of androgen receptor (AR) protein in VCaP cells by ELISA
Format: cell-based
Conditions: for Dmax: VCaP; for inhibition at 0.1 µM: percentage of degraded AR at 100 nM, read-out: % degradation

[1] = AR degradation, VCaP cells, 16 h, ELISA, Table 3-1, read-out: DC50
[2] = AR degradation, VCaP cells, 16 h, ELISA, Table 3-1, read-out: Dmax (%)

SMILES	DC50 [1] [nM]	Dmax [2] [%]	other results
N#Cc1ccc(O[C@H]2CC[C@H](NC(=O)c3cnc(N4CCC5(CN(CC6CCN(c7cc8c(cc7F)C(=O)N(C7CCC(=O)NC7=O)C8=O)CC6)C5)C4)cn3)CC2)cc1Cl (stereo partly shown) [Compound 189, N-((1r,4r)-4-(3-chloro-4-cyanophenoxy)cyclohexyl)-5-(2-((1-(2-(2,6-dioxopiperidin-3-yl)-6-fluoro-1,3-dioxoisoindolin-5-yl)piperidine-4-yl)methyl)-2,6-diazaspiro[3.4]octan-6-yl)pyrazine-2-carboxamide]	< 10	> 80	–
N#Cc1ccc(O[C@H]2CC[C@H](NC(=O)c3ccc(N4CCC(CN5CCC6(CC5)CN(c5ccc7c(c5)C(=O)N(C5CCC(=O)NC5=O)C7=O)C6)CC4)cc3)CC2)cc1Cl (stereo partly shown) [Compound 192]	< 10	> 80	–
N#Cc1ccc(O[C@H]2CC[C@H](NC(=O)c3nnc(N4CC5(CCN(C6CCN(c7ccc8c(c7)C(=O)N(C7CCC(=O)NC7=O)C8=O)CC6)CC5)C4)s3)CC2)cc1Cl (stereo partly shown) [Compound 193, N-((1r,4r)-4-(3-chloro-4-cyanophenoxy)cyclohexyl)-5-(7-(1-(2-(2,6-dioxopiperidin-3-yl)-1,3-dioxoisoindolin-5-yl)piperidine-4-yl)-2,7-diazaspiro[3.5]nonan-2-yl)-1,3,4-thiadiazole-2-carboxamide]	< 10	> 80	–
[2H]C([2H])([2H])Oc1cc(O[C@H]2CC[C@H](NC(=O)c3cnc(N4CCC(CN5CCC6(CC5)CN(c5ccc7c(c5)C(=O)N(C5CCC(=O)NC5=O)C7=O)C6)CC4)nn3)CC2)ccc1C#N (stereo partly shown) [Compound 197, N-((1r,4r)-4-(4-cyano-3-(methoxy-d3)phenoxy)cyclohexyl)-3-(4-((2-(2-(2,6-dioxopiperidin-3-yl)-1,3-dioxoisoindolin-5-yl)-2,7-diazaspiro[3.5]nonan-7-yl)methyl)piperidin-1-yl)-1,2,4-triazine-6-carboxamide]	–	–	inhibition at 0.1 µM (VCaP cells, 16 h, ELISA): > 80%
CC1(C)[C@H](Oc2ccc(C#N)c(Cl)c2)C(C)(C)[C@H]1N1Cc2nc(N3CCC(CN4CCN(c5cc6c(cc5F)C(=O)N(C5CCC(=O)NC5=O)C6)CC4)CC3)ccc2C1=O (stereo partly shown) [Compound 206]	–	–	inhibition at 0.1 µM (VCaP cells, 16 h, ELISA): 25 to 49%
CC1(C)C(Oc2ccc(C#N)c(Cl)c2)C(C)(C)C1N1Cc2nc(N3CCC(CN4CCN(c5cc6c(cc5F)C(=O)N([C@@H]5CCC(=O)NC5=O)C6)CC4)CC3)ccc2C1=O (stereo partly shown) [Compound 212]	–	–	% degradation: C (key: A: >80%; B: 79%-50%; C: 49%-25%; D: <25%)
N#Cc1ccc(O[C@H]2CC[C@H](NC(=O)c3cnc(N4CCC(N5CC6(CCN(c7cc8c(cc7F)C(=O)N(C7CCC(=O)NC7=O)C8=O)CC6)C5)CC4)cn3)CC2)cc1C(F)(F)F (stereo partly shown) [Compound 236, N-((1r,4r)-4-(4-cyano-3-(trifluoromethyl)phenoxy)cyclohexyl)-5-(4-(7-(2-(2,6-dioxopiperidin-3-yl)-6-fluoro-1,3-dioxoisoindolin-5-yl)-2,7-diazaspiro[3.5]nonan-2-yl)piperidin-1-yl)pyrazine-2-carboxamide]	< 10	> 80	–
N#Cc1ccc(O[C@H]2CC[C@H](NC(=O)c3ccc(N4C[C@H]5CC[C@@H](C4)N5C[C@H]4[C@@H]5CN(c6cc7c(cc6F)C(=O)N(C6CCC(=O)NC6=O)C7=O)C[C@@H]54)nn3)CC2)cc1Cl (stereo partly shown) [Compound 239]	–	–	DC50: 10 to 100 nM; Dmax: 60 to 80%
N#Cc1ccc(OC2CCC(NC(=O)c3cnc(N4C[C@H]5CC[C@@H](C4)N5C[C@H]4[C@@H]5CN(c6cc7c(cc6F)C(=O)N(C6CCC(=O)NC6=O)C7=O)C[C@@H]54)cn3)CC2)cc1Cl (stereo partly shown) [Compound 240]	–	–	DC50: 10 to 100 nM; Dmax: 60 to 80%
N#Cc1ccc(O[C@H]2CC[C@H](NC(=O)c3cnc(N4CCC(CN5CCC6(CC5)CN(c5ccc7c(c5)C(=O)N(C5CCC(=O)NC5=O)C7=O)C6)CC4)cn3)CC2)cc1Cl (stereo partly shown) [Compound 241, N-((1r,4r)-4-(3-chloro-4-cyanophenoxy)cyclohexyl)-6-(4-((2-(2-(2-,2,6-dioxopiperidin-3-yl)-1,3-dioxoisoindolin-5-yl)-2,7-diazaspiro[3.5]nonan-7-yl)methyl)piperidin-1-yl)pyrazine-3-carboxamide]	–	–	DC50: < 10 nM; Dmax: > 80%
N#Cc1ccc(O[C@H]2CC[C@H](NC(=O)c3cnc(N4CC5(CCN(C6CCN(c7cc8c(cc7F)C(=O)N(C7CCC(=O)NC7=O)C8=O)CC6)CC5)C4)cn3)CC2)cc1Cl (stereo partly shown) [Compound 242, N-((1r,4r)-4-(3-chloro-4-cyanophenoxy)cyclohexyl)-5-(7-(1-(2-(2,6-dioxopiperidin-3-yl)-6-fluoro-1,3-dioxoisoindolin-5-yl)piperidine-4-yl)-2,7-diazaspiro[3.5]nonan-2-yl)pyrazine-2-carboxamide]	< 10	> 80	–

Second part, led by results:

DC50 [1] [nM]	Dmax [2] [%]	SMILES	other results
< 10	> 80	N#Cc1ccc(O[C@H]2CC[C@H](NC(=O)c3ccc(N4CCC5(CC4)CN(CC4CCN(c6ccc7c(c6)C(=O)N(C6CCC(=O)NC6=O)C7=O)CC4)C5)nn3)CC2)cc1Cl (stereo partly shown) [Compound 190, N-((1r,4r)-4-(3-chloro-4-cyanophenoxy)cyclohexyl)-6-(2-((1-(2-(2,6-dioxopiperidin-3-yl)-1,3-dioxoisoindolin-5-yl)piperidine-4-yl)methyl)-2,7-diazaspiro[3.5]nonan-7-yl)pyridazine-3-formamide]	–
< 10	> 80	N#Cc1ccc(O[C@H]2CC[C@H](NC(=O)c3ccc(N4CCC(CN5CCC6(CC5)CN(c5cc7c(cc5F)C(=O)N(C5CCC(=O)NC5=O)C7=O)C6)CC4)cc3)CC2)cc1Cl (stereo partly shown) [Compound 191, N-((1r,4r)-4-(3-chloro-4-cyanophenoxy)cyclohexyl)-4-(4-((2-(2-(2,6-dioxopiperidin-3-yl)-6-fluoro-1,3-dioxoisoindolin-5-yl)-2,7-diazaspiro[3.5]nonan-7-yl)methyl)piperidin-1-yl)benzamide]	–
< 10	> 80	N#Cc1ccc(O[C@H]2CC[C@H](NC(=O)c3ccc(N4CC5(CCN(CC6CCN(c7ccc8c(c7)C(=O)N(C7CCC(=O)NC7=O)C8=O)CC6)CC5)C4)cc3)CC2)cc1Cl (stereo partly shown) [Compound 194, N-((1r,4r)-4-(3-chloro-4-cyanophenoxy)cyclohexyl)-4-(7-((1-(2-(2,6-dioxopiperidin-3-yl)-1,3-dioxoisoindolin-5-yl)piperidine-4-yl)methyl)-2,7-diazaspiro[3.5]nonan-2-yl)benzamide]	–
< 10	–	N#Cc1ccc(OC2CCC(NC(=O)c3ccc(N4CCC(CN5CCC6(CC5)CN(c5ccc7c(c5)CN(C5CCC(=O)NC5=O)C7=O)C6)CC4)nn3)CC2)cc1Cl (stereo not shown) [Compound 196, N-((1r,4r)-4-(3-chloro-4-cyanophenoxy)cyclohexyl)-6-(4-((2-(2-(2,6-dioxopiperidin-3-yl)-1-oxoisoindolin-5-yl)-2,7-diazaspiro[3.5]nonan-7-yl)methyl)piperidin-1-yl)pyridazine-3-formamide]	Dmax (%) (AR degradation, VCaP cells, 16 h, ELISA, Table 3-1): ++++ (>80%)
< 10	> 80	N#Cc1ccc(O[C@H]2CC[C@H](NC(=O)c3cnc(N4CCC(CN5CCC6(CC5)CN(c5cc7c(cc5F)C(=O)N(C5CCC(=O)NC5=O)C7=O)C6)CC4)cn3)CC2)cc1Cl (stereo partly shown) [Compound 233]	–
< 10	> 80	N#Cc1ccc(OC2CCC(NC(=O)c3cnc(N4CCC(CN5CC6(CCN(c7cc8c(cc7F)C(=O)N(C7CCC(=O)NC7=O)C8=O)CC6)C5)CC4)cn3)CC2)cc1Cl (stereo not shown) [Compound 234, N-((1r,4r)-4-(3-chloro-4-cyanophenoxy)cyclohexyl)-5-(4-((7-(2,6-dioxopiperidin-3-yl)-6-fluoro-1,3-dioxoisoindolin-5-yl)-2,7-diazaspiro[3.5]nonan-2-yl)methyl)piperidin-1-yl)pyrazine-2-carboxamide]	–
< 10	> 80	N#Cc1ccc(OC2CCC(NC(=O)c3cnc(N4CC5(CCN(CC6CCN(c7cc8c(cc7F)C(=O)N(C7CCC(=O)NC7=O)C8=O)CC6)CC5)C4)cn3)CC2)cc1Cl (stereo not shown) [Compound 235, N-((1r,4r)-4-(3-chloro-4-cyanophenoxy)cyclohexyl)-5-(7-((1-(2-(2,6-dioxopiperidin-3-yl)-6-fluoro-1,3-dioxoisoindolin-5-yl)piperidine-4-yl)methyl)-2,7-diazaspiro[3.5]nonan-2-yl)pyrazine-2-carboxamide]	–
100 to 300	40 to 60	N#Cc1ccc(O[C@H]2CC[C@H](NC(=O)c3ccc(N4CC5CC4CN5C[C@H]4[C@@H]5CN(c6cc7c(cc6F)C(=O)N(C6CCC(=O)NC6=O)C7=O)C[C@@H]54)nn3)CC2)cc1Cl (stereo partly shown) [Compound 237]	–
10 to 100	40 to 60	N#Cc1ccc(O[C@H]2CC[C@H](NC(=O)c3cnc(N4CC5CC4CN5C[C@H]4[C@@H]5CN(c6cc7c(cc6F)C(=O)N(C6CCC(=O)NC6=O)C7=O)C[C@@H]54)cn3)CC2)cc1Cl (stereo partly shown) [Compound 238]	–
